Legend:
[1] = system: HMEC and HRE cells; assay: Lysis of target cells by mouse splenocytes (MTS assay); type: cell-based, human; conditions: non-cancerous HMEC and HRE cells; 0.1 or 0.5 μM, about 15 hours; splenocytes 10:1, 24 hours
Procedure: MDA-MB-435 cells were purchased from American Type culture collection. Human mammary epithelial (HMEC), human renal epithelial (HRE) cells and medium for maintaining the cells were obtained from Cambrex Bioproducts. Mouse splenocytes were isolated form CD1 nude mice (Jackson Lab). […] Mouse splenocytes were isolated from Nude mice and mixed with MDA-MB-435, HMEC and HRE cells at ratio of 10:1. The mixed cells were incubated at 37° C. for 24 hours in the tissue culture medium and MTS assay was performed to measure viability of the cells with an ELISA reader (DYNEX Technologies). Cytotoxicity (C) was calculated based on an equation below: C=[1-([…])]×100%

[2] = system: Hsp70; assay: Cell surface expression of Hsp70, MCF-7 cells (immunofluorescence); type: cell-based, human; conditions: MCF-7, 0.5 μM, 3 hrs
Procedure: After treatment, cells were rinsed one time in PBS then fixed in 2% Paraformaldehyde at room temperature for 20 minutes. Slides with the fixed cells were rinsed with PBS two times. Primary antibody mouse monoclonal anti-Hsp70 (Stressgen SPA-8 10) was diluted 1:100 in PBS and the slides were incubated 1 hour at 37° C. The slides were rinsed two times with PBS. Secondary antibody anti-mouse AlexaFluor 488 (Molecular Probes A-11001) was diluted 1:500 in PBS and the slides were incubated 30 min at 37° C. The slides were rinsed two times in PBS. DAPI (Molecular Probes D-3571) were diluted 1:10,000 in PBS and the slides were incubated at room temperature in dark for 5 min. The slides were rinsed two times in PBS, then once in deionized water and left to dry in dark until almost completely dry. Coverslips were mounted with Prolong Anti-fade Mounting Media (Molecular Probes P-748 1). The images were captured with a monochrome CCD camera SenSys (see FIGS. 27A-D and 28A-D) or by confocal microscopy (see FIG. 29A-E). In FIGS. 27A-D and 28A-D, the bright pink color on the surface of the MCF-7 cells (FIG. 27A-D) or CEM cells (FIG. 28A-D) indicates Hsp70 on the surface of the cells. In FIG. 29A-E the bright green color on the surface of the cell indicates Hsp70 on the surface of the HT29 cells.

[3] = system: HSB2 cells; assay: Apoptosis, Annexin V / propidium iodide FACS; type: cell-based
Procedure: To confirm that the ability of NAC to block Compound 1-induced cell death was not cell-line specific, we examined the role of oxidative stress in two additional cell lines by FAC analysis. RAMOS and HSB2 cells (ATCC) were seeded in 6-well plates at 1×10^6 cells/well/4 mL and incubated at 37° C. for 4 hours. […] After incubation the cells were stained with Annexin V and propidium iodide (Vybrant Apoptosis assay kit, Cat# V13241, Invitrogen, Molecular Probes) for measuring apoptotic cells by FACS analysis.
The cells were harvested and stained with Annexin V and propidium iodide for measuring apoptotic cells by FACS analysis.

[4] = Compound 1 0.2 μM plus NAC 5 mM, 20 hours
[5] = Compound 1 0.2 μM, 20 hours (FIG. 39D)

## CN(NC(=O)CC(=O)NN(C)C(=S)c1ccccc1)C(=S)c1ccccc1 [Compound 1]
[1]
  increase in lysis compared to cells treated with DMSO alone: only slightly increased
[2]
  Hsp70 on the surface of cells: bright pink fluorescent color on the surface of the cells indicating Hsp70
[2]; then 2 hrs recovery without Compound 1
  Hsp70 on the surface of cells: stronger than immediately following treatment with Compound 1
[3]; 200 nM Compound 1, 24 hours (DMSO 12%)
  early apoptotic cells: 45%
[3]; [4]
  cells in early stages of apoptosis: 2.9%
  cells in late stages of apoptosis: 3.8%
[3]; Compound 1 0.2 μM plus NAC 5 mM, 24 hours
  early apoptotic cells: 6%
[3]; [5]
  cells in early stages of apoptosis: 26.6%
  cells in late stage apoptosis: 41.5%

— patent US20090093538A1, “Method for treating cancer” (priority 2007, published 2009)
